The values below come from US7576059B2, “Peptide derivatives” (Novo Nordisk A/S, priority 1995, dated 2009).

Residues, ends and D or L forms follow the SMILES beside them.

This data set in a line: Determination of lipophilicity relative to human insulin (k′rel) by RP-HPLC. To be noted: pH 7.3. The class given is physicochemical. On the procedure: The lipophilicity of peptides and peptide derivatives relative to human insulin, k′rel, was measured on a LiChrosorb RP18 (5 μm, 4×250 mm) HPLC column by isocratic elution at 40° C. using mixtures of A) 0.1 M sodium phosphate buffer, pH 7.3, containing 10% acetonitrile, and B) 50% acetonitrile in water as eluents. The elution was monitored by following the UV absorption of the eluate at 214 nm. Void time, t0, was found by injecting 0.1 mM sodium nitrate. Retention time for human insulin, tinsulin, was adjusted to at least 2t0 by varying the ratio between the A and B solutions. k′rel=(tderivative−t0)/(tinsulin−t0).

With `CCCC[C@H](NC=O)C(=O)N[C@@H](CC(C)C)C(=O)N[C@@H](Cc1ccccc1)C(=O)N[C@@H](CCCC)C(=O)N[C@@H](Cc1ccc(O)cc1)C(=O)N[C@@H](CCCCN)C(=O)O` [For-Nle-Leu-Phe-Nle-Tyr-Lys-OH] (HELM PEPTIDE1{[O=C[*:2]].[Nle].L.F.[Nle].Y.K}$$$$V2.0), the “lipophilicity relative to human insulin, k′rel” value came to 2.3. As to `CC(C)C[C@H](NC(=O)[C@H](Cc1ccccc1)NC(=O)CNC(=O)[C@@H](C)NC(=O)[C@@H](N)Cc1ccc(O)cc1)C(=O)N[C@@H](CCCCN)C(=O)O` [H-Tyr-D-Ala-Gly-Phe-Leu-Lys-OH] (HELM PEPTIDE1{Y.[dA].G.F.L.K}$$$$V2.0), the “lipophilicity relative to human insulin, k′rel” value (LiChrosorb RP18 HPLC, isocratic, 40° C., k′rel=(tderivative−t0)/(tinsulin−t0)) is reported as 3.0×10^−3.
